Reference: PubChem BioAssay (NCI)
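Briefly, cells in 96-well plates were exposed to five compound concentrations for 48 h, and endpoints were estimated by linear interpolation. At the TGI there is no net growth.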

What was measured:
Assay in all cases: DTP human tumour cell line panel, 48 h
SK-OV-3 ovarian = tested on: SK-OV-3 ovarian
NCI-H460 lung = tested on: NCI-H460 lung
DLD-1 colon = tested on: DLD-1 colon
SF-268 CNS = tested on: SF-268 CNS
TK-10 renal = tested on: TK-10 renal
RXF 393 renal = tested on: RXF 393 renal
ACHN renal = tested on: ACHN renal
LXFL 529 NSCLC = tested on: LXFL 529 NSCLC
EKVX NSCLC = tested on: EKVX NSCLC
SF-539 CNS = tested on: SF-539 CNS
DMS 273 small cell lung = tested on: DMS 273 small cell lung
SK-MEL-28 melanoma = tested on: SK-MEL-28 melanoma
SN12C renal = tested on: SN12C renal
OVCAR-8 ovarian = tested on: OVCAR-8 ovarian
CCRF-CEM leukemia = tested on: CCRF-CEM leukemia
UACC-257 melanoma = tested on: UACC-257 melanoma
KM12 colon = tested on: KM12 colon
M14 melanoma = tested on: M14 melanoma
HT29 colon = tested on: HT29 colon
SNB-19 CNS = tested on: SNB-19 CNS
COLO 205 colon = tested on: COLO 205 colon
RPMI-8226 leukemia = tested on: RPMI-8226 leukemia
NCI-H226 lung = tested on: NCI-H226 lung
U251 CNS = tested on: U251 CNS
SW-620 colon = tested on: SW-620 colon
K-562 leukemia = tested on: K-562 leukemia
SNB-75 CNS = tested on: SNB-75 CNS
MALME-3M melanoma = tested on: MALME-3M melanoma
DMS 114 small cell lung = tested on: DMS 114 small cell lung
IGROV1 ovarian = tested on: IGROV1 ovarian
OVCAR-5 ovarian = tested on: OVCAR-5 ovarian
OVCAR-3 ovarian = tested on: OVCAR-3 ovarian
SR leukemia = tested on: SR leukemia
MOLT-4 leukemia = tested on: MOLT-4 leukemia
M19-MEL melanoma = tested on: M19-MEL melanoma
HCT-15 colon = tested on: HCT-15 colon
UACC-62 melanoma = tested on: UACC-62 melanoma
HOP-62 NSCLC = tested on: HOP-62 NSCLC
786-0 renal = tested on: 786-0 renal
HCT-116 colon = tested on: HCT-116 colon
CAKI-1 renal = tested on: CAKI-1 renal
HCC-2998 colon = tested on: HCC-2998 colon
LOX IMVI melanoma = tested on: LOX IMVI melanoma
A498 renal = tested on: A498 renal
SK-MEL-5 melanoma = tested on: SK-MEL-5 melanoma
UO-31 renal = tested on: UO-31 renal
HOP-18 NSCLC = tested on: HOP-18 NSCLC
NCI-H522 lung = tested on: NCI-H522 lung
NCI-H23 lung = tested on: NCI-H23 lung
RXF-631 renal = tested on: RXF-631 renal
SNB-78 CNS = tested on: SNB-78 CNS
KM20L2 colon = tested on: KM20L2 colon
A549 NSCLC = tested on: A549 NSCLC
SK-MEL-2 melanoma = tested on: SK-MEL-2 melanoma
SF-295 CNS = tested on: SF-295 CNS
OVCAR-4 ovarian = tested on: OVCAR-4 ovarian

**Q.** With CN1C(=O)N(C)C2(O)c3ccccc3C(=O)C12O (stereo not drawn) as the compound, how does the TGI (SK-OV-3 ovarian) read?
**A.** > 100 µM

**Q.** What about the TGI (NCI-H460 lung) of the same compound?
**A.** > 100 µM

**Q.** What about the TGI (DLD-1 colon) of the same compound?
**A.** > 100 µM

**Q.** And the TGI (SF-268 CNS)?
**A.** > 100 µM

**Q.** And the TGI (TK-10 renal)?
**A.** > 100 µM

**Q.** What about the TGI (RXF 393 renal) of the same compound?
**A.** > 100 µM

**Q.** What about the TGI (ACHN renal) of the same compound?
**A.** > 100 µM

**Q.** And the TGI (LXFL 529 NSCLC)?
**A.** > 100 µM

**Q.** What about the TGI (EKVX NSCLC) of the same compound?
**A.** > 100 µM

**Q.** What about the TGI (SF-539 CNS) of the same compound?
**A.** > 100 µM

**Q.** And the TGI (DMS 273 small cell lung)?
**A.** > 100 µM

**Q.** And the TGI (SK-MEL-28 melanoma)?
**A.** > 100 µM

**Q.** What about the TGI (SN12C renal) of the same compound?
**A.** > 100 µM

**Q.** And the TGI (OVCAR-8 ovarian)?
**A.** > 100 µM

**Q.** And the TGI (CCRF-CEM leukemia)?
**A.** > 100 µM

**Q.** And the TGI (UACC-257 melanoma)?
**A.** > 100 µM

**Q.** And the TGI (KM12 colon)?
**A.** > 100 µM

**Q.** What about the TGI (M14 melanoma) of the same compound?
**A.** > 100 µM

**Q.** What about the TGI (HT29 colon) of the same compound?
**A.** > 100 µM

**Q.** And the TGI (SNB-19 CNS)?
**A.** > 100 µM

**Q.** What about the TGI (COLO 205 colon) of the same compound?
**A.** > 100 µM

**Q.** And the TGI (RPMI-8226 leukemia)?
**A.** > 100 µM

**Q.** And the TGI (NCI-H226 lung)?
**A.** > 100 µM

**Q.** And the TGI (U251 CNS)?
**A.** > 100 µM

**Q.** And the TGI (SW-620 colon)?
**A.** > 100 µM

**Q.** And the TGI (K-562 leukemia)?
**A.** > 100 µM

**Q.** And the TGI (SNB-75 CNS)?
**A.** > 100 µM

**Q.** And the TGI (MALME-3M melanoma)?
**A.** > 100 µM

**Q.** And the TGI (DMS 114 small cell lung)?
**A.** > 100 µM

**Q.** What about the TGI (IGROV1 ovarian) of the same compound?
**A.** > 100 µM

**Q.** And the TGI (OVCAR-5 ovarian)?
**A.** > 100 µM

**Q.** And the TGI (OVCAR-3 ovarian)?
**A.** > 100 µM

**Q.** What about the TGI (SR leukemia) of the same compound?
**A.** > 100 µM

**Q.** What about the TGI (MOLT-4 leukemia) of the same compound?
**A.** > 100 µM

**Q.** And the TGI (M19-MEL melanoma)?
**A.** > 100 µM

**Q.** What about the TGI (HCT-15 colon) of the same compound?
**A.** > 100 µM

**Q.** What about the TGI (UACC-62 melanoma) of the same compound?
**A.** > 100 µM

**Q.** And the TGI (HOP-62 NSCLC)?
**A.** > 100 µM

**Q.** What about the TGI (786-0 renal) of the same compound?
**A.** > 100 µM

**Q.** What about the TGI (HCT-116 colon) of the same compound?
**A.** > 100 µM

**Q.** And the TGI (CAKI-1 renal)?
**A.** > 100 µM

**Q.** What about the TGI (HCC-2998 colon) of the same compound?
**A.** > 100 µM

**Q.** What about the TGI (LOX IMVI melanoma) of the same compound?
**A.** > 100 µM

**Q.** What about the TGI (A498 renal) of the same compound?
**A.** > 100 µM

**Q.** And the TGI (SK-MEL-5 melanoma)?
**A.** > 100 µM

**Q.** What about the TGI (UO-31 renal) of the same compound?
**A.** > 100 µM

**Q.** What about the TGI (HOP-18 NSCLC) of the same compound?
**A.** > 100 µM

**Q.** What about the TGI (NCI-H522 lung) of the same compound?
**A.** > 100 µM

**Q.** And the TGI (NCI-H23 lung)?
**A.** > 100 µM

**Q.** What about the TGI (RXF-631 renal) of the same compound?
**A.** > 100 µM

**Q.** And the TGI (SNB-78 CNS)?
**A.** > 100 µM

**Q.** And the TGI (KM20L2 colon)?
**A.** > 100 µM

**Q.** And the TGI (A549 NSCLC)?
**A.** > 100 µM

**Q.** What about the TGI (SK-MEL-2 melanoma) of the same compound?
**A.** > 100 µM

**Q.** What about the TGI (SF-295 CNS) of the same compound?
**A.** > 100 µM

**Q.** What about the TGI (OVCAR-4 ovarian) of the same compound?
**A.** > 100 µM

**Q.** Which results are given for O=C1c2ccccc2C(=O)c2nc3c(O)cccc3cc21?
**A.** TGI (NCI-H460 lung): > 100 µM; TGI (DLD-1 colon): > 100 µM; TGI (SF-268 CNS): > 100 µM; TGI (TK-10 renal): > 100 µM; TGI (RXF 393 renal): > 100 µM; TGI (ACHN renal): > 100 µM; TGI (LXFL 529 NSCLC): > 100 µM; TGI (EKVX NSCLC): > 100 µM; TGI (SF-539 CNS): > 100 µM; TGI (DMS 273 small cell lung): > 100 µM; TGI (SK-MEL-28 melanoma): > 100 µM; TGI (SN12C renal): > 100 µM; TGI (OVCAR-8 ovarian): > 100 µM; TGI (UACC-257 melanoma): 32.4 µM; TGI (KM12 colon): > 100 µM; TGI (M14 melanoma): 27.9 µM; TGI (HT29 colon): 52.9 µM; TGI (SNB-19 CNS): > 100 µM; TGI (COLO 205 colon): > 100 µM; TGI (RPMI-8226 leukemia): > 100 µM; TGI (NCI-H226 lung): > 100 µM; TGI (U251 CNS): > 100 µM; TGI (SW-620 colon): > 100 µM; TGI (K-562 leukemia): > 100 µM; TGI (SNB-75 CNS): > 100 µM; TGI (MALME-3M melanoma): > 100 µM; TGI (DMS 114 small cell lung): 20.7 µM; TGI (IGROV1 ovarian): > 100 µM; TGI (OVCAR-5 ovarian): > 100 µM; TGI (OVCAR-3 ovarian): 4.98 µM; TGI (SR leukemia): > 100 µM; TGI (MOLT-4 leukemia): 23 µM; TGI (HCT-15 colon): > 100 µM; TGI (UACC-62 melanoma): > 100 µM; TGI (HOP-62 NSCLC): > 100 µM; TGI (786-0 renal): > 100 µM; TGI (HCT-116 colon): 19.4 µM; TGI (CAKI-1 renal): > 100 µM; TGI (HCC-2998 colon): > 100 µM; TGI (LOX IMVI melanoma): > 100 µM; TGI (A498 renal): 64.2 µM; TGI (SK-MEL-5 melanoma): 18.5 µM; TGI (UO-31 renal): > 100 µM; TGI (HOP-18 NSCLC): > 100 µM; TGI (NCI-H522 lung): 72.2 µM; TGI (NCI-H23 lung): > 100 µM; TGI (RXF-631 renal): > 100 µM; TGI (KM20L2 colon): > 100 µM; TGI (A549 NSCLC): > 100 µM; TGI (SK-MEL-2 melanoma): > 100 µM; TGI (SF-295 CNS): 74.1 µM; TGI (OVCAR-4 ovarian): > 100 µM
